# From patent publication US20240239752A1, “BICYCLIC HETEROAROMATIC INHIBITORS OF KLK5” (BioCryst Pharmaceuticals, Inc., priority 2021, published 2024)
# Biological target: T1, recombinant human KLK5 (Homo sapiens, UniProt Q9Y337)
# T1 construct: purchased Novoprotein or R&D Systems C415 or 1108-SE
# T1 sequence (Q9Y337 23-293): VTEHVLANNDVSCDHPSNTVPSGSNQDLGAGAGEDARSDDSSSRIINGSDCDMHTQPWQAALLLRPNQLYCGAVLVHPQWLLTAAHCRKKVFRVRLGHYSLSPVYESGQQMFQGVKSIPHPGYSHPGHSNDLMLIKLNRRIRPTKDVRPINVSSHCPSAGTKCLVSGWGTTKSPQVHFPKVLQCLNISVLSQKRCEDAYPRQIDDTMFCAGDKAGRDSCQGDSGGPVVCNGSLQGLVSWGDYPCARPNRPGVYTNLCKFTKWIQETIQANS
# Assay: Kallikrein (KLK) 5 enzymatic assay (Boc-VPR-AMC fluorogenic substrate)
# Type: biochemical
# Settings: recombinant human KLK5 0.1 μg/well, Boc-VPR-AMC 100 μM, pH 7.5, room temperature, 1% DMSO; tested a minimum of three times
# From the text: Kallikrein-5 (KLK5) is a member of the serine protease family of proteolytic enzymes, confirmed to have trypsin-like activity (Michael I P, et al. Biochemical and enzymatic characterization of human kallikrein 5 (hK5), a novel serine protease potentially involved in cancer progression (J. Biol. Chem. 2005 Apr. 15; 280 (15): 14628-35). Boc-VPR-AMC is a fluorogenic peptide substrate composed of the short peptide chain, Valine-Proline-Arginine (VPR) and the fluorophore, 7-amino-4-methylcoumarin (AMC). KLK5 is able to cleave the fluorogenic peptide substrate Boc-VPR-AMC, releasing the AMC fluorophore, which causes a fluorescent emission in proportion with the enzymatic activity of KLK5. The KLK5 enzymatic activity is monitored by measuring fluorescent emission at wavelengths of 380 nm (excitation) and 460 nm (emission).
# The IC50 value of compounds against KLK5 (i.e., the concentration of the compound that inhibits 50% of the enzymatic activity) was calculated according to the procedure reported by R&D systems (Recombinant human KLK5, Catalog Number: 1108-SE), with the exception the pH of the assay was modified from 8.0 to 7.5. Specifically, recombinant human KLK5 (Novoprotein Catalog #C415 or R&D systems Catalog #1108-SE) and fluorogenic peptide Boc-VPR-AMC substrate (R&D Catalog #ES011) were each separately diluted in assay buffer (0.1 M NaH2PO4 buffer, pH 7.5). The compounds of the disclosure were dissolved in DMSO at a concentration of 10 mM. A portion of this stock solution was added to the recombinant human KLK5 solution to provide a desired concentration of the compounds and the mixture was incubated at room temperature. The reaction was initiated by the addition of the fluorogenic peptide substrate at room temperature. The final concentration of recombinant human KLK5 was 0.1 μg/well and the final concentration of the fluorogenic substrate was 100 μM (final volume of 100 μL, 1% DMSO). The assays were performed in 96 well F16 Black Maxisorp Plate (Nunc Catalog #475515). Controls included assay buffer alone and enzyme solutions to which DMSO was added. The reaction rates were measured spectrophotometrically by excitation at 380 nm and emission at 460 nm on a Biotek Synergy H1 plate reader.
# The reaction rate for enzyme alone was compared to the reaction rate of enzyme in the presence of compound and the percent inhibition was calculated as shown below:
# Percent Inhibition=[Rate with inhibitor/Rate without inhibitor)]×100
# An IC50 indicates a compound concentration that inhibits 50% of the enzymatic activity. Compounds were tested a minimum of three times.
row,IC50 [µM],SMILES
1,1 to 10,"CC(C)n1nc(COc2ccccc2CC(=O)O)c2cc(-c3ccc4nccc(N)c4c3)ccc21 [Compound 25c, 2-(2-((5-(4-aminoquinolin-6-yl)-1-isopropyl-1H-indazol-3-yl)methoxy)phenyl)acetic acid]"
2,1 to 10,"CC(C)n1nc(COc2ccccc2CC(=O)O)c2cc(-c3ccc4[nH]c(N)nc4c3)ccc21 [Compound 26c, 2-(2-((5-(2-amino-1H-benzo[d]imidazol-5-yl)-1-isopropyl-1H-indazol-3-yl)methoxy)phenyl)acetic acid]"
3,> 10,"CC(C)n1nc(COc2ccccc2CC(=O)O)c2cc(-c3ccc4oc(N)nc4c3)ccc21 [Compound 27c, 2-(2-((5-(2-aminobenzo[d]oxazol-5-yl)-1-isopropyl-1H-indazol-3-yl)methoxy)phenyl)acetic acid]"
4,< 1,"N=C(N)c1cccc(-c2ccc3c(c2)c(COc2ccccc2CC(=O)O)nn3C2CCC2)c1 [Compound 28d, 2-(2-((5-(3-carbamimidoylphenyl)-1-cyclobutyl-1H-indazol-3-yl)methoxy)phenyl)acetic acid]"
5,> 10,"CC(C)n1nc(COc2ccccc2CC(=O)O)c2cc(-c3ccc(C(=N)N)c(O)c3)ccc21 [Compound 29c, 2-(2-((5-(4-carbamimidoyl-3-hydroxyphenyl)-1-isopropyl-1H-indazol-3-yl)methoxy)phenyl)acetic acid]"
6,> 10,"CC(C)n1nc(COc2ccccc2CC(=O)O)c2cc(-c3cccc4c(N)noc34)ccc21 [Compound 30c, 2-(2-((5-(3-aminobenzo[d]isoxazol-7-yl)-1-isopropyl-1H-indazol-3-yl)methoxy)phenyl)acetic acid]"
7,> 10,"CC(C)n1nc(COc2ccccc2CC(=O)O)c2cc(-c3ccc4[nH]nc(N)c4c3)ccc21 [Compound 32c, 2-(2-((3′-amino-1-isopropyl-1H, 1′H-[5,5′-biindazol]-3-yl)methoxy)phenyl)acetic acid]"
8,> 10,"CC(C)n1nc(COc2ccccc2CC(=O)O)c2cc(-c3ccn4ncc(N)c4n3)ccc21 [Compound 33c, 2-(2-((5-(3-aminopyrazolo[1,5-a]pyrimidin-5-yl)-1-isopropyl-1H-indazol-3-yl)methoxy)phenyl)acetic acid]"
9,> 10,"CC(C)n1nc(COc2ccccc2CC(=O)O)c2cc(-c3ccc4cc(N)ncc4c3)ccc21 [Compound 34c, 2-(2-((5-(3-aminoisoquinolin-7-yl)-1-isopropyl-1H-indazol-3-yl)methoxy)phenyl)acetic acid]"
10,> 10,"CC(C)n1nc(COc2ccccc2CC(=O)O)c2cc(-c3ccc4cc(N)ccc4c3)ccc21 [Compound 36c, 2-(2-((5-(6-aminonaphthalen-2-yl)-1-isopropyl-1H-indazol-3-yl)methoxy)phenyl)acetic acid]"
11,< 1,"CC(C)n1nc(COc2ccccc2CC(=O)O)c2cc(-c3cccc4c(N)nccc34)ccc21 [Compound 40b, 2-(2-((5-(1-aminoisoquinolin-5-yl)-1-isopropyl-1H-indazol-3-yl)methoxy)phenyl)acetic acid]"
12,> 10,"CC(C)n1nc(COc2ccccc2CC(=O)O)c2cc(-c3ccc4ccnc(O)c4c3)ccc21 [Compound 44d, 2-(2-((5-(1-hydroxyisoquinolin-7-yl)-1-isopropyl-1H-indazol-3-yl)methoxy)phenyl)acetic acid]"
13,> 10,"CC(C)n1nc(COc2ccccc2CC(=O)O)c2cc(-c3ccc4cc(Cl)nc(N)c4c3)ccc21 [Compound 46d, 2-(2-((5-(1-amino-3-chloroisoquinolin-7-yl)-1-isopropyl-1H-indazol-3-yl)methoxy)phenyl)acetic acid]"
14,> 10,"CC(C)n1nc(COc2ccccc2CC(=O)O)c2cc(-c3ccc4ccc(N)nc4c3)ccc21 [Compound 50c, 2-(2-((5-(2-aminoquinolin-7-yl)-1-isopropyl-1H-indazol-3-yl)methoxy)phenyl)acetic acid]"
15,> 10,"CC(C)n1nc(COc2ccccc2CC(=O)O)c2cc(-c3cccc(-c4nnc[nH]4)c3)ccc21 [Compound 52c, 2-(2-((5-(3-(4H-1,2,4-triazol-3-yl)phenyl)-1-isopropyl-1H-indazol-3-yl)methoxy)phenyl)acetic acid]"
16,> 10,"CC(C)n1nc(COc2ccccc2CC(=O)O)c2cc(-c3ccnc4c(N)cccc34)ccc21 [Compound 53c, 2-(2-((5-(8-aminoquinolin-4-yl)-1-isopropyl-1H-indazol-3-yl)methoxy)phenyl)acetic acid]"

# More lines, now with the values behind:
row,SMILES,IC50 [µM]
1,"CC(C)n1nc(COc2ccccc2CC(=O)O)c2cc(-c3cccc4c(N)n[nH]c34)ccc21 [Compound 31c, 2-(2-((3′-amino-1-isopropyl-1H, 1′H-[5,7′-biindazol]-3-yl)methoxy)phenyl)acetic acid]",1 to 10
2,"CC(C)n1nc(COc2ccccc2CC(=O)O)c2cc(-c3ccc4nc(N)ccc4c3)ccc21 [Compound 35c, 2-(2-((5-(2-aminoquinolin-6-yl)-1-isopropyl-1H-indazol-3-yl)methoxy)phenyl)acetic acid]",> 10
3,"Nc1nccc2ccc(-c3ccc4c(c3)c(COc3ccccc3CC(=O)O)nn4C3CCC3)cc12 [Compound 37c, 2-(2-((5-(1-aminoisoquinolin-7-yl)-1-cyclobutyl-1H-indazol-3-yl)methoxy)phenyl)acetic acid]",< 1
4,"CC(C)n1nc(COc2ccccc2CC(=O)O)c2cc(-c3cc4cc(N)ccc4cn3)ccc21 [Compound 38c, 2-(2-((5-(6-aminoisoquinolin-3-yl)-1-isopropyl-1H-indazol-3-yl)methoxy)phenyl)acetic acid]",> 10
5,"CC(C)n1nc(COc2ccccc2CC(=O)O)c2cc(-c3ccc4ncnc(N)c4c3)ccc21 [Compound 39c, 2-(2-((5-(4-aminoquinazolin-6-yl)-1-isopropyl-1H-indazol-3-yl)methoxy)phenyl)acetic acid]",> 10
6,"CC(C)n1nc(COc2ccccc2CC(=O)O)c2cc(-c3ccc4c(N)nc(N)nc4c3)ccc21 [Compound 41c, 2-(2-((5-(2,4-diaminoquinazolin-7-yl)-1-isopropyl-1H-indazol-3-yl)methoxy)phenyl)acetic acid]",> 10
7,"Nc1nccc2ccc(-c3ccc4c(c3)c(COc3ccccc3CC(=O)O)nn4C3CCCC3)cc12 [Compound 42d, 2-(2-((5-(1-aminoisoquinolin-7-yl)-1-cyclopentyl-1H-indazol-3-yl)methoxy)phenyl)acetic acid]",< 1
8,"CC(C)n1nc(COc2ccccc2CC(=O)O)c2cc(-c3ccc4c(N)cccc4c3)ccc21 [Compound 43d, 2-(2-((5-(5-aminonaphthalen-2-yl)-1-isopropyl-1H-indazol-3-yl)methoxy)phenyl)acetic acid]",> 10
9,"CC(C)n1nc(COc2ccccc2CC(=O)O)c2cc(-c3cccc(-c4c[nH]nc4N)c3)ccc21 [Compound 45c, 2-(2-((5-(3-(3-amino-1H-pyrazol-4-yl)phenyl)-1-isopropyl-1H-indazol-3-yl)methoxy)phenyl)acetic acid]",> 10
10,"CC(C)n1nc(COc2ccccc2CC(=O)O)c2cc(-c3cccc(-c4nn[nH]n4)c3)ccc21 [Compound 47c, 2-(2-((5-(3-(2H-tetrazol-5-yl)phenyl)-1-isopropyl-1H-indazol-3-yl)methoxy)phenyl)acetic acid]",> 10
11,"Nc1nccc2ccc(-c3ccc4c(c3)c(COc3ccccc3CC(=O)O)nn4C3CCCCC3)cc12 [Compound 48d, 2-(2-((5-(1-aminoisoquinolin-7-yl)-1-cyclohexyl-1H-indazol-3-yl)methoxy)phenyl)acetic acid]",< 1
12,"CC(C)n1nc(COc2ccccc2CC(=O)O)c2cc(-c3ccc4c(N)noc4c3)ccc21 [Compound 49a, 2-(2-((5-(3-aminobenzo[d]isoxazol-6-yl)-1-isopropyl-1H-indazol-3-yl)methoxy)phenyl)acetic acid]",> 10
13,"CC(C)n1nc(COc2ccccc2CC(=O)O)c2cc(-c3cccc(-c4cnc[nH]4)c3)ccc21 [Compound 51c, 2-(2-((5-(3-(1H-imidazol-5-yl)phenyl)-1-isopropyl-1H-indazol-3-yl)methoxy)phenyl)acetic acid]",> 10
